Test results taken from the NIST ThermoML archive (doi:10.1021/je025660t).
Numbers after ± are expanded uncertainties.

Settings: Liquid

COCC(C)O (centres undefined) [1-methoxy-2-propanol]
vapor or sublimation pressure (331.47 K): 9.246 ± 0.14 kPa
vapor or sublimation pressure (333.15 K): 10.01 ± 0.14 kPa
vapor or sublimation pressure (339.12 K): 13.11 ± 0.14 kPa
vapor or sublimation pressure (343.15 K): 15.79 ± 0.14 kPa
vapor or sublimation pressure (347.71 K): 19.25 ± 0.15 kPa
vapor or sublimation pressure (351.56 K): 22.64 ± 0.15 kPa
vapor or sublimation pressure (353.15 K): 24.17 ± 0.15 kPa
vapor or sublimation pressure (355.59 K): 26.69 ± 0.16 kPa
vapor or sublimation pressure (358.15 K): 29.57 ± 0.16 kPa
vapor or sublimation pressure (360.78 K): 32.79 ± 0.17 kPa
vapor or sublimation pressure (363.01 K): 35.74 ± 0.17 kPa
vapor or sublimation pressure (368.23 K): 43.48 ± 0.18 kPa
vapor or sublimation pressure (373.31 K): 52.31 ± 0.19 kPa

CCCCCN [1-pentanamine]
vapor or sublimation pressure (322.61 K): 13.08 ± 0.07 kPa
vapor or sublimation pressure (328.37 K): 16.87 ± 0.073 kPa
vapor or sublimation pressure (333.14 K): 20.65 ± 0.075 kPa
vapor or sublimation pressure (338.07 K): 25.25 ± 0.078 kPa
vapor or sublimation pressure (340.66 K): 27.99 ± 0.08 kPa
vapor or sublimation pressure (343.16 K): 30.85 ± 0.082 kPa
vapor or sublimation pressure (345.56 K): 33.81 ± 0.084 kPa
vapor or sublimation pressure (348.11 K): 37.22 ± 0.086 kPa
vapor or sublimation pressure (353.15 K): 44.75 ± 0.091 kPa
vapor or sublimation pressure (358.15 K): 53.38 ± 0.097 kPa
vapor or sublimation pressure (363.14 K): 63.27 ± 0.1 kPa
vapor or sublimation pressure (370.62 K): 80.72 ± 0.12 kPa
vapor or sublimation pressure (377.93 K): 101.33 ± 0.13 kPa

CC#N [acetonitrile]
vapor or sublimation pressure (302.25 K): 14.15 ± 0.071 kPa
vapor or sublimation pressure (307.09 K): 17.52 ± 0.073 kPa
vapor or sublimation pressure (311.49 K): 21.13 ± 0.076 kPa
vapor or sublimation pressure (313.15 K): 22.65 ± 0.077 kPa
vapor or sublimation pressure (316.27 K): 25.72 ± 0.079 kPa
vapor or sublimation pressure (318.18 K): 27.78 ± 0.08 kPa
vapor or sublimation pressure (320.65 K): 30.64 ± 0.082 kPa
vapor or sublimation pressure (323.16 K): 33.8 ± 0.084 kPa
vapor or sublimation pressure (326.16 K): 37.9 ± 0.087 kPa
vapor or sublimation pressure (328.5 K): 41.38 ± 0.089 kPa
vapor or sublimation pressure (331.15 K): 45.62 ± 0.092 kPa
vapor or sublimation pressure (333.15 K): 49.06 ± 0.094 kPa
vapor or sublimation pressure (335.84 K): 54.01 ± 0.097 kPa
vapor or sublimation pressure (338.15 K): 58.58 ± 0.1 kPa
vapor or sublimation pressure (343.18 K): 69.62 ± 0.11 kPa
vapor or sublimation pressure (348.25 K): 82.37 ± 0.12 kPa
vapor or sublimation pressure (353.1 K): 96.34 ± 0.12 kPa

CCC#N [propanenitrile]
vapor or sublimation pressure (309.38 K): 10.59 ± 0.069 kPa
vapor or sublimation pressure (311.56 K): 11.55 ± 0.2 kPa
vapor or sublimation pressure (313.15 K): 12.55 ± 0.07 kPa
vapor or sublimation pressure (315.89 K): 14.14 ± 0.071 kPa
vapor or sublimation pressure (318.35 K): 15.71 ± 0.072 kPa
vapor or sublimation pressure (320.51 K): 17.22 ± 0.073 kPa
vapor or sublimation pressure (323.15 K): 19.22 ± 0.074 kPa
vapor or sublimation pressure (325.74 K): 21.35 ± 0.076 kPa
vapor or sublimation pressure (328.27 K): 23.64 ± 0.077 kPa
vapor or sublimation pressure (330.82 K): 26.11 ± 0.079 kPa
vapor or sublimation pressure (333.15 K): 28.57 ± 0.08 kPa
vapor or sublimation pressure (335.82 K): 31.64 ± 0.082 kPa
vapor or sublimation pressure (338.22 K): 34.61 ± 0.085 kPa
vapor or sublimation pressure (343.08 K): 41.33 ± 0.089 kPa
vapor or sublimation pressure (348.09 K): 49.32 ± 0.094 kPa
vapor or sublimation pressure (353.15 K): 58.6 ± 0.1 kPa
